Measured values reported in US5698522A, “6-position modified decapeptide LHRH antagonists” (Abbott Laboratories, priority 1995, dated 1997).
*1 amine or outer side, *2 acyl side, *3 side chain or, on linkers, in order; H or OH if unused. Where a SMILES comes first, the peptide text is derived from it. Side-chain parts run from the residue outwards. [ ]: non-standard residue; d: D form. The star is where a group is joined. X3 = O=Cn1cc(C[C@@H](NC(=O)C2=C[C@@H](O)[C@@H](O)[C@H](O)C2)C(=O)*)c2ccccc21; NMePhe(4-NH(5-NH2-Trz-3-yl)) = CN[C@@H](Cc1ccc(Nc2n[nH]c(N)n2)cc1)C(=O)O; Biotin = O=C1N[C@H]2[C@H](CS[C@H]2CCCCC(=O)*)N1; dPhe(4-Cl) = N[C@H](Cc1ccc(Cl)cc1)C(=O)O; d2Nal = N[C@H](Cc1ccc2ccccc2c1)C(=O)O; Lys(iPr) = CC(C)NCCCC[C@H](N)C(=O)O; NMeY = CN[C@@H](Cc1ccc(O)cc1)C(=O)O; Ethylenediamine = C(CN[*:2])N[*:1]; d3Pal = N[C@H](Cc1cccnc1)C(=O)O; Nicotinoyl = O=C(c1cccnc1)*; X4 = Nc1nc(NCC(=O)*)n[nH]1; dOrn = NCCC[C@@H](N)C(=O)O; 2Furoyl = O=C(c1ccco1)*; CO = O=C([*:1])[*:2]; Propionyl = CCC(=O)*; X2 = O=C(c1ccoc1)*; GABA = NCCCC(=O)O; azaGly = NNC(=O)O; βAla = NCCC(=O)O; Sar = CNCC(=O)O

Biological target: T1, LHRH receptor (Rattus norvegicus, UniProt P30969)
T1 construct: endogenous in cells
T1 sequence (P30969 1-327): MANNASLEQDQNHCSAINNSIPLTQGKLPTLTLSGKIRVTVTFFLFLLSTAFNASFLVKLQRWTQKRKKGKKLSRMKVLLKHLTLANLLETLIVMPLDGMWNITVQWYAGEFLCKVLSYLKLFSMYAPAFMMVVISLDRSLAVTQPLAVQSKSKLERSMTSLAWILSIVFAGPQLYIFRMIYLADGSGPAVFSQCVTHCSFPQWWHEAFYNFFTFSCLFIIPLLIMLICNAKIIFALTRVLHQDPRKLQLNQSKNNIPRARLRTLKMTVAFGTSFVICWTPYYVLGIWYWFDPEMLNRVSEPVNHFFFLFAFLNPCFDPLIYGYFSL
Experiment: in vitro LHRH antagonist potency (pA2) against the agonist leuprolide
Format: cell-based
Conditions: negative logarithm of the antagonist concentration which shifts the response curve produced by the agonist leuprolide to two-fold higher concentration
Procedure, shortened: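 Functional antagonism against the agonist leuprolide. pA2 is the negative log of antagonist concentration that shifts the leuprolide response curve to twofold higher concentration.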

Structure (SMILES)	Kb [nM]
CC(=O)N[C@H](Cc1ccc2ccccc2c1)C(=O)N[C@H](Cc1ccc(Cl)cc1)C(=O)N[C@H](Cc1cccnc1)C(=O)N[C@@H](CO)C(=O)N(C)[C@@H](Cc1ccc(O)cc1)C(=O)N[C@H](CCCNC(=O)NNC(=O)c1cccnc1)C(=O)N[C@@H](CC(C)C)C(=O)N[C@@H](CCCCNC(C)C)C(=O)N1CCC[C@H]1C(=O)N[C@H](C)C(N)=O [Example 53a, NAc-D2Nal^1 -D4ClPhe^2 -D3Pal^3 -Ser^4 -NMeTyr^5 -DOrn(N-epsilon-Azagly-Nicotinyl)^6 -Leu^7 -Lys(N-epsilon-Isopropyl)^8 -Pro^9 -DAla^10 NH2] (Ac-[d2Nal][dPhe(4-Cl)][d3Pal]S[NMeY][dOrn]([azaGly-Nicotinoyl])L[Lys(iPr)]P[dA]-NH2)	0.0331
CC(=O)N[C@H](Cc1ccc2ccccc2c1)C(=O)N[C@H](Cc1ccc(Cl)cc1)C(=O)N[C@H](Cc1cccnc1)C(=O)N[C@@H](CO)C(=O)N(C)[C@@H](Cc1ccc(O)cc1)C(=O)N[C@H](CCCNC(=O)CNC(=O)c1cccnc1)C(=O)N[C@@H](CC(C)C)C(=O)N[C@@H](CCCCNC(C)C)C(=O)N1CCC[C@H]1C(=O)N[C@H](C)C(N)=O [Example 54, NAc-D2Nal^1 -D4ClPhe^2 -D3Pal^3 -Ser^4 -NMeTyr^5 -DOrn(N-epsilon-Gly-Nicotinyl)^6 -Leu^7 -Lys(N-epsilon-Isopropyl)^8 -Pro^9 -DAla^10 NH2] (Ac-[d2Nal][dPhe(4-Cl)][d3Pal]S[NMeY][dOrn]([Gly-Nicotinoyl])L[Lys(iPr)]P[dA]-NH2)	0.0302
CC(=O)N[C@H](Cc1ccc2ccccc2c1)C(=O)N[C@H](Cc1ccc(Cl)cc1)C(=O)N[C@H](Cc1cccnc1)C(=O)N[C@@H](CO)C(=O)N(C)[C@@H](Cc1ccc(O)cc1)C(=O)N[C@H](CCCCNC(=O)CNC(=O)CNC(=O)c1ccco1)C(=O)N[C@@H](CC(C)C)C(=O)N[C@@H](CCCCNC(C)C)C(=O)N1CCC[C@H]1C(=O)N[C@H](C)C(N)=O [Example 57a, NAcD2Nal^1 -D4ClPhe^2 -D3Pal^3 -Ser^4 -NMeTyr^5 -DLys(N-epsilon-Gly-Gly-furoyl)^6 -Leu^7 -Lys(Isp)^8 -Pro^9 -DAla^10 NH2] (Ac-[d2Nal][dPhe(4-Cl)][d3Pal]S[NMeY][dK]([Gly-Gly-2Furoyl])L[Lys(iPr)]P[dA]-NH2)	0.0145
CC(=O)N[C@H](Cc1ccc2ccccc2c1)C(=O)N[C@H](Cc1ccc(Cl)cc1)C(=O)N[C@H](Cc1cccnc1)C(=O)N[C@@H](CO)C(=O)N(C)[C@@H](Cc1ccc(O)cc1)C(=O)N[C@H](CCCCNC(=O)CCNC(=O)CNC(=O)c1ccco1)C(=O)N[C@@H](CC(C)C)C(=O)N[C@@H](CCCCNC(C)C)C(=O)N1CCC[C@H]1C(=O)N[C@H](C)C(N)=O [Example 57c, NAc-D2Nal^1 -D4ClPhe^2 -D3Pal^3 -Ser^4 -NMeTyr^5 -DLys(N-epsilon-beta-alanyl-glycyl-furoyl)^6 -Leu^7 -Lys(Isp)^8 -Pro^9 -DAla^10 NH2] (Ac-[d2Nal][dPhe(4-Cl)][d3Pal]S[NMeY][dK]([βAla-Gly-2Furoyl])L[Lys(iPr)]P[dA]-NH2)	0.0186
CC(=O)N[C@H](Cc1ccc2ccccc2c1)C(=O)N[C@H](Cc1ccc(Cl)cc1)C(=O)N[C@H](Cc1cccnc1)C(=O)N[C@@H](CO)C(=O)N(C)[C@@H](Cc1ccc(O)cc1)C(=O)N[C@H](CCCCNC(=O)CCCNC(=O)CNC(=O)c1ccco1)C(=O)N[C@@H](CC(C)C)C(=O)N[C@@H](CCCCNC(C)C)C(=O)N1CCC[C@H]1C(=O)N[C@H](C)C(N)=O [Example 57e, NAc-D2Nal^1 -D4ClPhe^2 -D3Pal^3 -Ser^4 -NMeTyr^5 -DLys(N-epsilon-4-aminobutyryl-glycyl-furoyl)^6 -Leu^7 -Lys(Isp)^8 -Pro^9 -DAla^10 NH2] (Ac-[d2Nal][dPhe(4-Cl)][d3Pal]S[NMeY][dK]([GABA-Gly-2Furoyl])L[Lys(iPr)]P[dA]-NH2)	0.012
CCC(=O)NNC(=O)NCCCC[C@@H](NC(=O)[C@H](Cc1ccc(O)cc1)N(C)C(=O)[C@H](CO)NC(=O)[C@@H](Cc1cccnc1)NC(=O)[C@@H](Cc1ccc(Cl)cc1)NC(=O)[C@@H](Cc1ccc2ccccc2c1)NC(C)=O)C(=O)N[C@@H](CC(C)C)C(=O)N[C@@H](CCCCNC(C)C)C(=O)N1CCC[C@H]1C(=O)N[C@H](C)C(N)=O [Example 58, NAc-D2Nal^1 -D4ClPhe^2 -D3Pal^3 -Ser^4 -NMeTyr^5 -DLys(N-epsilon-Azagly-Propionyl)^6 -Leu^7 -Lys(N-epsilon-Isopropyl)^8 -Pro^9 -DAla^10 NH2] (Ac-[d2Nal][dPhe(4-Cl)][d3Pal]S[NMeY][dK]([azaGly-Propionyl])L[Lys(iPr)]P[dA]-NH2)	0.0257
CC(=O)N[C@H](Cc1ccc2ccccc2c1)C(=O)N[C@H](Cc1ccc(Cl)cc1)C(=O)N[C@H](Cc1cccnc1)C(=O)N[C@@H](CO)C(=O)N(C)[C@@H](Cc1ccc(O)cc1)C(=O)N[C@H](CCCCNC(=O)NNC(=O)c1ccco1)C(=O)N[C@@H](CC(C)C)C(=O)N[C@@H](CCCCNC(C)C)C(=O)N1CCC[C@H]1C(=O)N(C)CC(N)=O [Example 59, NAc-D2Nal^1 -D4ClPhe^2 -D3Pal^3 -Ser^4 -NMeTyr^5 -DLys(N-epsilon-Azagly-Fur-2-oyl)^6 -Leu^7 -Lys(N-epsilon-Isopropyl)^8 -Pro^9 -Sar^10 NH2] (Ac-[d2Nal][dPhe(4-Cl)][d3Pal]S[NMeY][dK]([azaGly-2Furoyl])L[Lys(iPr)]P[Sar]-NH2)	0.0363
CC(=O)N[C@H](Cc1ccc2ccccc2c1)C(=O)N[C@H](Cc1ccc(Cl)cc1)C(=O)N[C@H](Cc1cccnc1)C(=O)N[C@@H](CO)C(=O)N(C)[C@@H](Cc1ccc(O)cc1)C(=O)N[C@H](CCCCNC(=O)NNC(=O)c1cccnc1)C(=O)N[C@@H](CC(C)C)C(=O)N[C@@H](CCCCNC(C)C)C(=O)N1CCC[C@H]1C(=O)N(C)CC(N)=O [Example 60, NAc-D2Nal^1 -D4ClPhe^2 -D3Pal^3 -Ser^4 -NMeTyr^5 -DLys(N-epsilon-Azagly-Nicotinyl)^6 -Leu^7 -Lys(N-epsilon-Isopropyl)^8 -Pro^9 -Sar^10 NH2] (Ac-[d2Nal][dPhe(4-Cl)][d3Pal]S[NMeY][dK]([azaGly-Nicotinoyl])L[Lys(iPr)]P[Sar]-NH2)	0.0282
CC(=O)N[C@H](Cc1ccc2ccccc2c1)C(=O)N[C@H](Cc1ccc(Cl)cc1)C(=O)N[C@H](Cc1cccnc1)C(=O)N[C@@H](CO)C(=O)N(C)[C@@H](Cc1ccc(O)cc1)C(=O)N[C@H](CCCCNC(=O)NCCNC(=O)c1cccnc1)C(=O)N[C@@H](CC(C)C)C(=O)N[C@@H](CCCCNC(C)C)C(=O)N1CCC[C@H]1C(=O)N[C@H](C)C(N)=O [Example 62, NAc-D2Nal^1 -D4ClPhe^2 -D3Pal^3 -Ser^4 -NMeTyr^5 -DLys(N-epsilon-N'-Carbonyl-Diaminoethane-N"-Nicotinyl)^6 -Leu^7 -Lys(N-epsilon-Isopropyl)^8 -Pro^9 -DAla^10 NH2] (Ac-[d2Nal][dPhe(4-Cl)][d3Pal]S[NMeY][dK]([CO-Ethylenediamine-Nicotinoyl])L[Lys(iPr)]P[dA]-NH2)	0.0263
CC(=O)N[C@H](Cc1ccc2ccccc2c1)C(=O)N[C@H](Cc1ccc(Cl)cc1)C(=O)N[C@H](Cc1cccnc1)C(=O)N[C@@H](CO)C(=O)N(C)[C@@H](Cc1ccc(Nc2n[nH]c(N)n2)cc1)C(=O)N[C@H](CCCCNC(=O)CNc1n[nH]c(N)n1)C(=O)N[C@@H](CC(C)C)C(=O)N[C@@H](CCCCNC(C)C)C(=O)N1CCC[C@H]1C(=O)N[C@H](C)C(N)=O [Example 63, NAc-D2Nal^1 -D4ClPhe^2 -D3Pal^3 -Ser^4 -NMePhe(Atz)^5 -DLys(N-epsilon-N'-Gly-Atz)^6 -Leu^7 -Lys(N-epsilon-Isopropyl)^8 -Pro^9 -DAla^10 NH2] (Ac-[d2Nal][dPhe(4-Cl)][d3Pal]S[NMePhe(4-NH(5-NH2-Trz-3-yl))][dK](X4)L[Lys(iPr)]P[dA]-NH2)	0.00447
CC(=O)N[C@H](Cc1ccc2ccccc2c1)C(=O)N[C@H](Cc1ccc(Cl)cc1)C(=O)N[C@H](Cc1cccnc1)C(=O)N[C@@H](CO)C(=O)N(C)[C@@H](Cc1ccc(O)cc1)C(=O)N[C@H](CCCCNC(=O)CNC(=O)CCCC[C@@H]1SC[C@@H]2NC(=O)N[C@@H]21)C(=O)N[C@@H](CC(C)C)C(=O)N[C@@H](CCCCNC(C)C)C(=O)N1CCC[C@H]1C(=O)N[C@H](C)C(N)=O [Example 64, NAc-D2Nal^1 -D4ClPhe^2 -D3Pal^3 -Ser^4 -NMeTyr^5 -DLys(N-epsilon-Gly-Biotinyl)^6 -Leu^7 -Lys(N-epsilon-isopropyl)^8 -Pro^9 -DAla^10 NH2] (Ac-[d2Nal][dPhe(4-Cl)][d3Pal]S[NMeY][dK]([Gly-Biotin])L[Lys(iPr)]P[dA]-NH2)	0.0115
CC(=O)N[C@H](Cc1ccc2ccccc2c1)C(=O)N[C@H](Cc1ccc(Cl)cc1)C(=O)N[C@H](Cc1cccnc1)C(=O)N[C@@H](CO)C(=O)N(C)[C@@H](Cc1ccc(O)cc1)C(=O)N[C@H](CCCCNC(=O)[C@@H](Cc1cn(C=O)c2ccccc12)NC(=O)C1=C[C@@H](O)[C@@H](O)[C@H](O)C1)C(=O)N[C@@H](CC(C)C)C(=O)N[C@@H](CCCNC(=N)N)C(=O)N1CCC[C@H]1C(=O)N[C@H](C)C(N)=O [Example 65a, NAc-D2Nal^1 -D4ClPhe^2 -D3Pal^3 -Ser^4 -NMeTyr^5 -DLys(N-epsilon-DTrp(Formyl)-Shikimyl)^6 -Leu^7 -Arg^8 -Pro^9 -DAla^10 NH2] (Ac-[d2Nal][dPhe(4-Cl)][d3Pal]S[NMeY][dK](X3)LRP[dA]-NH2)	0.0251
CC(=O)N[C@H](Cc1ccc2ccccc2c1)C(=O)N[C@H](Cc1ccc(Cl)cc1)C(=O)N[C@H](Cc1cccnc1)C(=O)N[C@@H](CO)C(=O)N(C)[C@@H](Cc1ccc(O)cc1)C(=O)N[C@H](CCCCNC(=O)[C@@H](CO)NC(=O)c1ccoc1)C(=O)N[C@@H](CC(C)C)C(=O)N[C@@H](CCCNC(=N)N)C(=O)N1CCC[C@H]1C(=O)N[C@H](C)C(N)=O [Example 65b, NAc-D2Nal^1 -D4ClPhe^2 -D3Pal^3 -Ser^4 -NMeTyr^5 -DLys(N-epsilon-DSer-3Furoyl)^6 -Leu^7 -Arg^8 -Pro^9 -DAla^10 NH2] (Ac-[d2Nal][dPhe(4-Cl)][d3Pal]S[NMeY][dK]([dS-X2])LRP[dA]-NH2)	0.00229
